Laboratory results as given in patent US8058228B2, “Leptin peptide antagonists” (Boston Biomedical Research Institute, priority 2004, dated 2011).
Entries after “also recorded” stand apart in the source; their conditions may differ.

How the values were obtained:
OB-R [1] = assay: Competitive binding of 125I-human leptin to OB-R in rabbit endometrial cell lysates
Method: ^125I-human leptin served as ligand and LPA-2 and LPA-2Sc as competitors for the binding to OB-R in cellular extracts. All compounds were diluted in assay buffer (50 mM Tris and 100 mM NaCl, pH 8.5) to promote proper re-folding. Each assay tube contained 50 μl of cellular lysate (100 μg protein from 10^6 cells cultured for two days in basal medium), 50 μl of ^125I-human leptin (100.000 cpm), and 50 μl of LPAs (providing 10^−5-10^−14 M/tube). The tubes were incubated for 24 h at room temperature. Then, 250 μl of 1% BSA (w/v) and 500 μl of 20% polyethylene glycol (w/v) in PBS were added and the tubes were incubated for an additional 12-h period at 4° C. The tubes were centrifuged at 12.000 g for 15 min at 4° C. After careful aspiration of supernatant and complete drying of the tube-walls with filter paper, ^125I-human leptin binding in the precipitates was measured (Beckman 5000, counter). The binding of ^125I-leptin to OB-R in absence of LPAs was set at 100%, and LPA competitive binding values were expressed as percentages of total cpm. Affinity binding constants for LPAs were calculated from the competition curves.

OB-R [2] = assay: LIF secretion by rabbit endometrial cell cultures (ELISA); type: cell-based
Method: Rabbit endometrial cells (5×10^5 cells/well) were cultured for 5-9 days in DMEM-MCDB105 (3:1) medium containing 10% fetal bovine serum (FBS), 5 μg/ml insulin, 1% amphopthericin B, 100 μg/ml streptomycin and 100 U/ml penicillin until confluent layers were obtained. The cells were washed twice with 100 mM phosphate saline buffer (PBS) −2% BSA (w/v), pH 7.2 and cultured for an additional 2 days in the same medium but without FBS (basal medium). This procedure was performed to reduce any effects of cytokines from FBS on the phosphorylation rate of Stat3 as well as the expression of other cytokines and their receptors. Cells were washed as described before and cultured in basal medium containing leptin (0-10 nM), OB-R antibody (1-20 μg/ml) and/or LPA-2 peptides (0-300 nM). Cultures were stopped at 24 h and the cells were used for immunocytochemistry, binding studies and western blot analysis. The conditioned media were collected, lyophilized and stored at −80° C. for ELISA determinations. Duplicate wells were run for each treatment and the experiments repeated at least three times with different cell preparations from different rabbits. Controls were the same cellular preparations cultured in basal medium containing non-specific goat IgGs and LPA-2Sc.
IL-1β from rabbits and humans have sequence differences, but no data is available concerning the sequence of rabbit LIF. In addition, there are no commercial kits for measuring rabbit IL-1β or LIF. […] Conditioned media (n=3 per treatment) from rESC and rEEC cultured in the experimental conditions described above were used to quantify the secretion of LIF by ELISA (LIF-Quantikine®, R&D Systems). Standards, controls, and samples were assayed in duplicate. The intra- and interassay coefficients of variations were between 0.7-12% and 3-7%, respectively.

OB-R [3] = assay: OB-R expression by rabbit endometrial cells (immunocytochemistry, Western blot); type: cell-based; settings: cultures of rESC or rEEC
Method: Rabbit endometrial cells (5×10^5 cells/well) were cultured for 5-9 days in DMEM-MCDB105 (3:1) medium containing 10% fetal bovine serum (FBS), 5 μg/ml insulin, 1% amphopthericin B, 100 μg/ml streptomycin and 100 U/ml penicillin until confluent layers were obtained. The cells were washed twice with 100 mM phosphate saline buffer (PBS) −2% BSA (w/v), pH 7.2 and cultured for an additional 2 days in the same medium but without FBS (basal medium). This procedure was performed to reduce any effects of cytokines from FBS on the phosphorylation rate of Stat3 as well as the expression of other cytokines and their receptors. […]
The expression of OB-R was assessed by incubation of rEC for 1 h at room temperature with goat antibodies directed towards the amino terminal ends of human OB-R (R&D system) diluted 1:80 in buffer A.
After culture in the presence of leptin, LPAs or antibodies, the endometrial cells were washed with ice-cold PBS and lysed by homogenization on ice with lysis buffer [[…] Tris, pH 7.4, containing […] NaCl, 2 mM EDTA, 10% glycerol, 50 mM β-glycerophosphate, […] NaF, 1% Nonidet P-40, 2 mM phenyl-methylsulfonyl fluoride, 2 mM sodium orthovanadate, 100 μM antipain, 0.1 mg/ml trypsin inhibitor and protease cocktail inhibitor 1:50 (Sigma)]. […] Protein concentrations were determined using the Bradford protein assay (BioRad Laboratories Inc., Hercules, Calif.). […]

Row | Substance | competition with 125I-leptin for binding to OB-R (OB-R [1]; cellular lysates of rabbit endometrial cells) | Ki (OB-R [1]; competition with 125I-leptin, OB-R expressed by rabbit endometrial cells (rEEC and rESC), protein extracts) [nM] | effect on leptin induction of LIF secretion (OB-R [2]; rEEC, leptin 3 nM with LPA-2 3 to 300 nM, OB-R antibody 20 μg/ml) | effect on leptin-induced LIF secretion at the higher leptin dose (OB-R [2]; rEEC, leptin 10 nM, equimolar LPA-2 (10 nM)) | expression of OB-R (OB-R [3]) | LIF secretion after leptin (OB-R [2]; rEEC and rESC, more evident in rEEC)
1 | SRNVIQISNDLENLRDLLHVLAFSKS [LPA-2, 26 amino acid peptide, residues 70-95 of helix III of the human leptin molecule; leptin peptide antagonist] | displaced | ~0.06 | significantly inhibited the leptin (3 nM) induction of LIF secretion | effectively inhibited; also recorded: completely inhibited | did not affect the expression of OB-R | 
2 | leptin: human recombinant leptin (R&D Systems), OB-R ligand used as stimulus |  |  |  |  | did not affect the expression of OB-R | increased LIF secretion in a dose-dependent manner
